Test results from publication PMC4917448 (Journal of biomolecular screening, 2016).
“Also recorded” adds a separate entry of the source.

Key:
HDAC I/II [1] = test: HDAC-Glo I/II assay in HCT116 cells; type: cell-based, human; conditions: for HDAC-Glo: Efficacy, HCT116 / Efficacy, HDAC-Glo I/II HCT116 assay: maximal response; for HDAC I/II inhibitory activity (in words): HCT116 and HEK293 cells, validation with epigenetics libraries; for HDAC activity inhibited, HDAC-Glo I/II: HCT116, qHTS primary screening of NPC library; for IC50, HDAC-Glo activity: HCT116, validation with epigenetics libraries, 0.7 nM-46 μM
HDAC I/II [2] = test: HDAC-Glo I/II assay in human neural stem cells; type: cell-based; conditions: cherry-pick confirmation; for HDAC-Glo: Efficacy, hNSC: maximal response; for IC50: read-out: HDAC-Glo: IC50, hNSC, 11 concentrations, 1 hour; for inhibition of HDAC-Glo I/II luminescence signals: hNSCs, Figure 2
human neural stem cells = test: CellTiter-Glo cell viability assay in hNSC; type: cell-based; conditions: cherry-pick confirmation, 1 hour
HCT116 cells = test: CellTiter-Glo cell viability assay in HCT116; type: cell-based, human; conditions: cherry-pick confirmation, 1 hour
HDAC6 = biological target: T1, HDAC6 (Homo sapiens, UniProt Q9UBN7); test: Fluorogenic isoform-specific HDAC assay, HDAC6; type: biochemical; conditions: 20 μM
T1 sequence (Q9UBN7 1-1215): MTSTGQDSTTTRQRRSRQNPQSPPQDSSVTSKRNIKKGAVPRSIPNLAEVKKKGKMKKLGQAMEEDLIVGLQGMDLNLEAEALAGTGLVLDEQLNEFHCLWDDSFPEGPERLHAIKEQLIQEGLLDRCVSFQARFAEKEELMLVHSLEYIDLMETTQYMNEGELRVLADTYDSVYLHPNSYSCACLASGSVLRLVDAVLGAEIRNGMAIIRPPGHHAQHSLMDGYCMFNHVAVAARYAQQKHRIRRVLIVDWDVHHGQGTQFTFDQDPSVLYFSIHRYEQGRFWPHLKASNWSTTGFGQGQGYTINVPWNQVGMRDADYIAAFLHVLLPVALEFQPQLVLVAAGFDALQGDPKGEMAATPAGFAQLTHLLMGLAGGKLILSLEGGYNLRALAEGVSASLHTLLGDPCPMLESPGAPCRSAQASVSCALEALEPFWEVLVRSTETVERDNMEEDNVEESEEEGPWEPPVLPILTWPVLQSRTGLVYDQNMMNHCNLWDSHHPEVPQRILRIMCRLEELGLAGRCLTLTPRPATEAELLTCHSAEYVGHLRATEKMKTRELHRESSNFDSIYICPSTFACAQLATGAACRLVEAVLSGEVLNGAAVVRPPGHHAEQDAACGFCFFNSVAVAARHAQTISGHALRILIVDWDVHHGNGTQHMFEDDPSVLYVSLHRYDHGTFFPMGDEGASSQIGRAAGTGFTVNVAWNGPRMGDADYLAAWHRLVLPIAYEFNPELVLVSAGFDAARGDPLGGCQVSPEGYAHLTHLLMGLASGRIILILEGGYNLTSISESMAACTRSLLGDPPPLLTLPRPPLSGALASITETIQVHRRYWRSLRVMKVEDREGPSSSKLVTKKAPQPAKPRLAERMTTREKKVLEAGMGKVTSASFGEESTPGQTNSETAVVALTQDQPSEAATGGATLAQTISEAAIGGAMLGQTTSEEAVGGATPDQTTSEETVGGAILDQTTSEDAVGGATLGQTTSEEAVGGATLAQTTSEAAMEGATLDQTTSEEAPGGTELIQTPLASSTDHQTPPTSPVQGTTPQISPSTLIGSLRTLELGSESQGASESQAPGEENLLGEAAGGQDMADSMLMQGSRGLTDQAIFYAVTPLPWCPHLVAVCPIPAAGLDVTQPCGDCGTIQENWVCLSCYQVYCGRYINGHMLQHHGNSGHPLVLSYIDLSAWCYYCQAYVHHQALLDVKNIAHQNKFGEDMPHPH

HDAC3 = HDAC3 (Homo sapiens, UniProt O15379); test: Fluorogenic isoform-specific HDAC assay, HDAC3; type: biochemical; conditions: 20 μM
[3] = system: class I and II HDAC enzymes; test: Panel of fluorogenic assays against ten class I and II HDAC isoforms; type: biochemical, human; conditions: 20 μM; for inhibition of HDAC isoforms (in words): Figure 3
HDAC I/II [4] = test: HDAC-Glo I/II assay in HEK293 cells; type: cell-based, human; conditions: HEK293, validation with epigenetics libraries, 0.7 nM-46 μM
[5] = read-out: HDAC-Glo: IC50, HCT116, cherry-pick confirmation, 11 concentrations, 1 hour
[6] = read-out: IC50, HDAC-Glo I/II HCT116 assay, powder confirmation

Sequence of HDAC3 (O15379 whole entry, canonical isoform): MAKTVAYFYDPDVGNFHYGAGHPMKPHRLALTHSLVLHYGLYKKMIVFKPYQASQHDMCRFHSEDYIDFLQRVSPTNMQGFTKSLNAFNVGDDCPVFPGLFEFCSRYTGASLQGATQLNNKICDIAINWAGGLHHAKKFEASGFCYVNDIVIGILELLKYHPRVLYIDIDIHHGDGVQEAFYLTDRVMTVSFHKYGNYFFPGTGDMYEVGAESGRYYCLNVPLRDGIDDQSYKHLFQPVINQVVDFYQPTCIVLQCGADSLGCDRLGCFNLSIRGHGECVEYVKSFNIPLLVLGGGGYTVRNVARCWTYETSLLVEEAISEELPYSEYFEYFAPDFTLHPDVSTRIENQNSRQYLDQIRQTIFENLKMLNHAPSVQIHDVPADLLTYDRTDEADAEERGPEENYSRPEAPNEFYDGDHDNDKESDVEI
Sequence of HDAC3 (Q9Y618 395-489 partner limits assumed): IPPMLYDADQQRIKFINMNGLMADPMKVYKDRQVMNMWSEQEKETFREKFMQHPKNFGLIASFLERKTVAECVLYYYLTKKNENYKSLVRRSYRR

Row | IC50 (HDAC I/II [1]; [5]) [nM] | IC50 (HDAC I/II [2]) [nM] | Viability: IC50, HCT116 (HCT116 cells) | IC50 (HDAC I/II [1]; [6]) [nM] | Compound | HDAC-Glo: Efficacy, HCT116 (HDAC I/II [1]; cherry-pick confirmation) | HDAC-Glo: Efficacy, hNSC (HDAC I/II [2]) | Viability: IC50, hNSC (human neural stem cells) | Efficacy, HDAC-Glo I/II HCT116 assay (HDAC I/II [1]; powder confirmation) | also measured
1 | 940 ± 110 | 760 ± 170 | Inactive | – | CC(C)[C@H](C(=O)Nc1ccc(C(=O)NO)cc1)c1ccccc1 [AR-42] | 113 ± 2% | 115 ± 5% | Inactive | – | –
2 | – | – | – | – | CNC(=O)c1ccccc1Sc1ccc2c(/C=C/c3ccccn3)n[nH]c2c1 [Axitinib] | 2.97 ± 0.34 (105 ± 3) % | 6.65 ± 0.76 (106 ± 4) % | – | – | inhibition of HDAC6 (in words) (HDAC6): inhibited HDADC6 the most
3 | 1940 ± 660 | 950 ± 200 | Inactive | – | CN(C)C(=O)COC(=O)Cc1ccc(OC(=O)c2ccc(NC(=N)N)cc2)cc1 [Camostat] | 109 ± 4% | 102 ± 3% | Inactive | – | inhibition of HDAC-Glo I/II luminescence signals (HDAC I/II [2]): completely inhibited
4 | 3870 ± 810 | 2240 ± 150 | Inactive | 5280 ± 630 | O=C(Oc1ccccc1)c1cccc(C(=O)Oc2ccccc2)c1 [Diphenyl isophthalate] | 112 ± 5% | 103 ± 3% | Inactive | 97 ± 0% | inhibition of HDAC3 (in words) (HDAC3): selectively inhibited
5 | 2380 ± 440 | 2160 ± 600 | Inactive | 2430 ± 270 | Cc1nc(-c2ccc(OCC(C)C)c(C#N)c2)sc1C(=O)O [Febuxostat] | 127 ± 5% | 116 ± 3% | Inactive | 96 ± 1% | inhibition of HDAC3 (in words) (HDAC3): selectively inhibited; also recorded: selective to HDAC3
6 | – | – | – | – | C[C@@H]1NC(=O)[C@H]2CCCN2C(=O)[C@H](CCCCCC(=O)[C@@H]2CO2)NC(=O)[C@@H](C)NC1=O [HC Toxin] | – | – | – | – | HDAC I/II inhibitory activity (in words) (HDAC I/II [1]): identified
7 | 2320 ± 650 | 1960 ± 350 | Inactive | – | CC(C)(C)OC(=O)Nc1ccc(-c2cc(C(=O)NCCCCCCC(=O)NO)no2)cc1 [ISOX] | 124 ± 5% | 118 ± 6% | Inactive | – | –
8 | 1670 ± 190 | 2020 ± 130 | Inactive | 2360 ± 110 | O=C(/C=C/c1ccc(O)cc1)c1ccc(O)cc1O [Isoliquiritigenin] | 110 ± 3% | 117 ± 5% | Inactive | 97 ± 0% | inhibition of HDAC isoforms (in words) [3]: weakly inhibited many class I and II HDAC enzymes
9 | 9480 ± 1980 | 5900 | Inactive | 5610 ± 120 | Cc1oncc1C(=O)Nc1ccc(C(F)(F)F)cc1 [Leflunomide] | 118 ± 11% | 106 ± 2% | Inactive | 92 ± 0% | inhibition of HDAC3 (in words) (HDAC3): selectively inhibited
10 | 2380 ± 160 | 1400 ± 240 | Inactive | 2080 ± 170 | O=C(Nc1ccc([N+](=O)[O-])cc1Cl)c1cc(Cl)ccc1O [Niclosamide] | 112 ± 2% | 102 ± 4% | Inactive | 98 ± 1% | –
11 | 350 ± 60 | 270 ± 60 | Inactive | – | CCCCc1nc2cc(/C=C/C(=O)NO)ccc2n1CCN(CC)CC [Pracinostat] | 114 ± 4% | 112 ± 5% | Inactive | – | –
12 | – | – | – | – | Nc1cc(F)ccc1NC(=O)/C=C/c1cnn(C/C=C/c2ccccc2)c1 [RGFP966] | – | – | – | – | HDAC I/II inhibitory activity (in words) (HDAC I/II [1]): identified
13 | 1870 ± 220 | 1190 ± 250 | Inactive | 1760 ± 240 | O=C(CCCCCN1C(=O)c2cccc3cccc(c23)C1=O)NO [Scriptaid] | 123 ± 3% | 113 ± 6% | Inactive | 93 ± 1% | inhibition against all class I and II HDAC enzymes [3]: over 80%; inhibition of HDAC isoforms (in words) [3]: inhibited activities of all isoforms
14 | – | 660 ± 80 | Inactive | – | O=C(CCCCCCC(=O)Nc1ccccc1)NO [Vorinostat, suberoylanilide hydroxamic acid] | 0.77 ± 0.05 (119 ± 6) % | 101 ± 2% | Inactive | 0.45 ± 0.04 (99 ± 0) % | –
15 | – | – | – | – | CCC[S+]([O-])c1ccc2[nH]c(NC(=O)OC)nc2c1 (stereo not shown) [albendazole oxide] | – | – | – | – | HDAC activity inhibited, HDAC-Glo I/II (HDAC I/II [1]): more than half
16 | – | – | – | – | CCCSc1ccc2nc(NC(=O)OC)[nH]c2c1 [albendazole] | – | – | – | – | HDAC activity inhibited, HDAC-Glo I/II (HDAC I/II [1]): more than half
17 | – | – | – | – | CCC(=O)CCCCC[C@@H]1NC(=O)[C@H]2CCCCN2C(=O)[C@H]([C@@H](C)CC)NC(=O)[C@H](Cc2cn(OC)c3ccccc23)NC1=O [apicidin] | – | – | – | – | HDAC I/II inhibitory activity (in words) (HDAC I/II [1]): identified
18 | – | – | – | – | Nc1cc(F)ccc1NC(=O)c1ccc(CNC(=O)/C=C/c2cccnc2)cc1 [chidamide] | – | – | – | – | HDAC I/II inhibitory activity (in words) (HDAC I/II [1]): identified
19 | – | – | – | – | Nc1ccccc1NC(=O)c1ccc(CNC(=O)OCc2cccnc2)cc1 [entinostat] | – | – | – | – | HDAC I/II inhibitory activity (in words) (HDAC I/II [1]): identified
20 | – | – | – | – | CCCC(=O)[O-].[Na+] [sodium butyrate] | – | – | – | – | IC50, HDAC-Glo activity (HDAC I/II [1]): did not show concentration-dependent inhibition; IC50, HDAC-Glo activity (HDAC I/II [4]): did not show concentration-dependent inhibition
21 | – | – | – | – | O=C(O)CCCc1ccccc1 [sodium phenylbutyrate] | – | – | – | – | IC50, HDAC-Glo activity (HDAC I/II [1]): did not show concentration-dependent inhibition; IC50, HDAC-Glo activity (HDAC I/II [4]): did not show concentration-dependent inhibition
22 | – | – | – | – | c1ccc2[nH]c(-c3cscn3)nc2c1 [thiabendazole] | – | – | – | – | HDAC activity inhibited, HDAC-Glo I/II (HDAC I/II [1]): more than half
23 | – | – | – | – | CCCC(CCC)C(=O)O [valproic acid] | – | – | – | – | IC50, HDAC-Glo activity (HDAC I/II [1]): did not show concentration-dependent inhibition; IC50, HDAC-Glo activity (HDAC I/II [4]): did not show concentration-dependent inhibition
24 | – | – | – | – | selisistat [selisistat (EX-527)] | – | – | – | – | average IC50, HDAC-Glo I/II, assay selectivity (HDAC I/II [1]; HCT116, Figure 1C): inactive

Row | Compound | IC50 (HDAC I/II [1]; [5]) [nM] | IC50 (HDAC I/II [2]) [nM] | Viability: IC50, HCT116 (HCT116 cells) | IC50 (HDAC I/II [1]; [6]) [nM] | HDAC-Glo: Efficacy, HCT116 (HDAC I/II [1]; cherry-pick confirmation) | HDAC-Glo: Efficacy, hNSC (HDAC I/II [2]) | Viability: IC50, hNSC (human neural stem cells) | Efficacy, HDAC-Glo I/II HCT116 assay (HDAC I/II [1]; powder confirmation) | also measured
25 | CC(C)c1ccc2oc3nc(N)c(C(=O)O)cc3c(=O)c2c1 [Amlexanox] | 1090 ± 70 | 1100 ± 140 | Inactive | 1650 ± 360 | 110 ± 2% | 96 ± 7% | Inactive | 98 ± 0% | –
26 | Oc1ccc(/C=C/c2cc(O)cc(O)c2)cc1 [Resveratrol] | 11000 ± 1980 | 7430 | Inactive | 18200 ± 2050 | 97 ± 13% | 102 ± 4% | Inactive | 69 ± 2% | HDAC I/II inhibitory activity (in words) (HDAC I/II [1]): identified; inhibition of HDAC-Glo I/II luminescence signals (HDAC I/II [2]): completely inhibited
